This note sets out measurements from ChEMBL document CHEMBL1152433, “Pyrano[3,2-c]quinoline-6-chlorotacrine hybrids as a novel family of acetylcholinesterase- and beta-amyloid-directed anti-Alzheimer compounds” (J Med Chem, 2009).

The term IC50 denotes the concentration at which inhibition is half-maximal. As usually defined, the inhibition is how much of the control response was suppressed. For orientation: Papp means the rate of passage across a membrane or cell layer, normalised by area and donor concentration. A low value points to slow passage. A word on the Ki: it is the equilibrium dissociation constant of an inhibitor or competing ligand from its target.

Activity calls are given as the source filed them. The rule behind the calls is not given here.

Data set [1] concerns the target T1, Acetylcholinesterase (Bos taurus, UniProt P23795).
T1 sequence (P23795 whole entry): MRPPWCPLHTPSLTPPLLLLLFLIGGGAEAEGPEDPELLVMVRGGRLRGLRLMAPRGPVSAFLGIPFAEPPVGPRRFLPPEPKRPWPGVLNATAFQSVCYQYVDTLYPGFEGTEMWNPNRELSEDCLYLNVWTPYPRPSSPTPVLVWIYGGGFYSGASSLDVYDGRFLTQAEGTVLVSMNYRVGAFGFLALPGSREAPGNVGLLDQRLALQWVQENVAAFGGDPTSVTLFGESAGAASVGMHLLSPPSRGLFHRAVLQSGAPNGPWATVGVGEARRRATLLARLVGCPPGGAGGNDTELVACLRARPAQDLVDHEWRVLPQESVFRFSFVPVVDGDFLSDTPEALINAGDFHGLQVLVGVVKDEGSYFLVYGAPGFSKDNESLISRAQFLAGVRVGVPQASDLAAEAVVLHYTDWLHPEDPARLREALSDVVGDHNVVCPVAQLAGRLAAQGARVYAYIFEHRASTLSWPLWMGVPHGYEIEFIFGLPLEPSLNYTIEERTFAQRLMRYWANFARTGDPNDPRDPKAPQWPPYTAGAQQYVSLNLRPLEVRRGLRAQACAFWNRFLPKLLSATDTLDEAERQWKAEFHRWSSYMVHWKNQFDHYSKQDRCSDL
Put plainly: Inhibition of bovine AChE by Ellman's method.

Data set [2] deals with Amyloid-beta precursor protein (Homo sapiens) (UniProt P05067). Briefly: Inhibition of self-induced amyloid beta (1-42) aggregation at 50 uM by thioflavin T fluorescence method.
Amyloid-beta precursor protein (Homo sapiens), sequence (P05067 whole entry): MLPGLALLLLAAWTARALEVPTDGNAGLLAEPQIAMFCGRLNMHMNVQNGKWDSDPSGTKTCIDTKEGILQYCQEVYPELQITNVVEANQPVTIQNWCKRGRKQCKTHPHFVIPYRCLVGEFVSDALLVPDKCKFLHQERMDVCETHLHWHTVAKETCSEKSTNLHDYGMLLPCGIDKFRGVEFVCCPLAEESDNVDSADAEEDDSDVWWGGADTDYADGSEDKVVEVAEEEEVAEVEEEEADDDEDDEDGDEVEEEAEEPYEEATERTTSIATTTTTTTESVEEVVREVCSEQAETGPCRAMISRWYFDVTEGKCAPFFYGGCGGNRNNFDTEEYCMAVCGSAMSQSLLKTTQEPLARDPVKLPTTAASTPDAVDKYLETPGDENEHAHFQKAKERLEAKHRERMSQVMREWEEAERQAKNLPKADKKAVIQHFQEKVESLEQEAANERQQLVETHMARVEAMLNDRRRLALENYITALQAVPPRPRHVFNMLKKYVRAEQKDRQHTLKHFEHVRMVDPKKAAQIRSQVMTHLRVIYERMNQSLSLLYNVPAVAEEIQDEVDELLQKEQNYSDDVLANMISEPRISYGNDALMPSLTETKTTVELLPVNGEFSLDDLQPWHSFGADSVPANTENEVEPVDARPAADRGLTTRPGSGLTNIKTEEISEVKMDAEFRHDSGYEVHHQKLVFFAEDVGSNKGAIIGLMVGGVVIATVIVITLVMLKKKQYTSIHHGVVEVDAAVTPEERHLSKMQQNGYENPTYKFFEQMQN
The target of data set [3] is T2, Beta-secretase 1 (Homo sapiens, UniProt P56817). Briefly: Inhibition of human recombinant BACE1 at 2.5 uM by fluorimetric assay.
T2 sequence (P56817 whole entry): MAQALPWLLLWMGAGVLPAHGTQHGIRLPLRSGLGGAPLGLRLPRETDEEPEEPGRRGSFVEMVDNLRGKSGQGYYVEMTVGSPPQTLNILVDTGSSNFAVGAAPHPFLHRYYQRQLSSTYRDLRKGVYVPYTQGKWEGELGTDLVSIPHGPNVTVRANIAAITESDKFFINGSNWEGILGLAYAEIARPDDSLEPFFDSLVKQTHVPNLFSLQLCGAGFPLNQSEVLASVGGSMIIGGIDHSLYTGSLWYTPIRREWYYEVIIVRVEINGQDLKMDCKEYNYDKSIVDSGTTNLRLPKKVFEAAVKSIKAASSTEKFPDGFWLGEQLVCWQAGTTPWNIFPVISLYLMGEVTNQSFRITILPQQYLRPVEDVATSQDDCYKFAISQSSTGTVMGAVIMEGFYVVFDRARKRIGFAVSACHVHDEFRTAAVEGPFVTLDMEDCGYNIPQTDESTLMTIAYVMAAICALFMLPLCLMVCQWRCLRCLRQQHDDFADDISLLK
Data set [4] addresses T3, Acetylcholinesterase (Homo sapiens, UniProt P22303).
Description: Inhibition of AChE in human erythrocytes by Ellman's method
A short description of data set [5]: in vitro. Conditions: PAMPA. Background: The PAMPA barrier holds no transporters, so it reflects passive diffusion.
Description: Membrane permeability dissolved in PBS/EtOH (80:20) mixture by PAMPA-BBB assay
The target of the next data set is Cholinesterase (Homo sapiens, UniProt P06276). Put plainly: Inhibition of human serum BChE by Ellman's method. For orientation: In Ellman's method for cholinesterases, released thiocholine reacts with DTNB.
Cholinesterase, sequence (P06276 whole entry): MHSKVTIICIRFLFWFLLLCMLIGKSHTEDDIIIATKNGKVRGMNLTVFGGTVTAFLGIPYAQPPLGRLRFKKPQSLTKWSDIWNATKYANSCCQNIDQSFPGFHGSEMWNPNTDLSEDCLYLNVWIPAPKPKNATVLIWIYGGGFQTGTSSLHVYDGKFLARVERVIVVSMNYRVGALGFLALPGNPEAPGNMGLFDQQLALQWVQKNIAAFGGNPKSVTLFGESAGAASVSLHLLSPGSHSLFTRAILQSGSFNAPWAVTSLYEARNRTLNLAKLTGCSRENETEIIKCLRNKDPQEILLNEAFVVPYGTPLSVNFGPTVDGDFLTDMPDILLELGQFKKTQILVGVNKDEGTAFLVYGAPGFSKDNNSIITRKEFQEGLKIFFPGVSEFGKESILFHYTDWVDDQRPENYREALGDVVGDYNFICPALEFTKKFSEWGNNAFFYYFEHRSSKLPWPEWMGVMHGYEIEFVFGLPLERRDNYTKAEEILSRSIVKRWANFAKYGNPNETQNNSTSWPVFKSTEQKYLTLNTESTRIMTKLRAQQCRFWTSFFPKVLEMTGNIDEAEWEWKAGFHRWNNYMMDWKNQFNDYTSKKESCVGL
Data set [6] in a line: in vitro. Conditions: PAMPA. The source holds these as a separate data set.
Description: Membrane permeability dissolved in PBS/EtOH (70:30) mixture by PAMPA-BBB assay
The target of data set [7] is T3, Acetylcholinesterase. Put plainly: Inhibition of human recombinant AChE by Lineweaver-Burke reciprocal plot analysis.
The target of data set [8] is T2, Beta-secretase 1. Briefly: Inhibition of human recombinant BACE1 by fluorimetric assay.

T3 sequence (P22303 whole entry, the tested form may be a part): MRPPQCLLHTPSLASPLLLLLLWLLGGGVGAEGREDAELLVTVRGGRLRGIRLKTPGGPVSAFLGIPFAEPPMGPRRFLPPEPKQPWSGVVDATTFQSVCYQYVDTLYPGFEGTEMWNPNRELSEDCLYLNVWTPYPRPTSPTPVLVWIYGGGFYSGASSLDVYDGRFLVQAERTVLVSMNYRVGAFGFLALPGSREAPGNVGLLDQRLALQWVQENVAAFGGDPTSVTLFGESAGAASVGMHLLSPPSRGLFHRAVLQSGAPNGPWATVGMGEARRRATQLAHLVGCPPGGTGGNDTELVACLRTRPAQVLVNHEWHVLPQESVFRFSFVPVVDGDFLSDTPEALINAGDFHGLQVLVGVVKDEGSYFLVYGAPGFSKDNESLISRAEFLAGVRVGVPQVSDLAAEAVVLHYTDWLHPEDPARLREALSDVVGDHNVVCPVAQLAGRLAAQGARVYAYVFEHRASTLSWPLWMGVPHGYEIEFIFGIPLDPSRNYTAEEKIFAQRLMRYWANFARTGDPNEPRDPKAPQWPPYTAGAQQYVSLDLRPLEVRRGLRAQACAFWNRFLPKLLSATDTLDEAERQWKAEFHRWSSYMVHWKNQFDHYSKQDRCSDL

Compound `COC(=O)CCc1ccc2nc(-c3ccccc3)c3c(c2c1)OCCC3` showed an IC50 at Acetylcholinesterase [1] greater than 10000 nM. Also, the inhibition result (in data set [2]; at Beta-secretase 1 [3]) was “inactive” throughout.
For the compound `Cl.Cl.Cl.O=C(CCc1ccc2nc(-c3ccccc3)c3c(c2c1)OCCC3)NCCCCCCNc1c2c(nc3cc(Cl)ccc13)CCCC2`, the results for the IC50 against Acetylcholinesterase [1], against Acetylcholinesterase [4] and on Cholinesterase were 30.8 nM, 11.1 nM and 218 nM, respectively. In addition, the values for the inhibition (in [2]; at Beta-secretase 1 [3]) were 30.8% and 19.6%, respectively. The compound further returned a Papp in the data set “in vitro [5]” of 13.2 ×10⁻⁶ cm/s.
Turning to `CC[N+](C)(CC)CCC[n+]1c(-c2ccccc2)c2cc(N)ccc2c2ccc(N)cc21` [PROPIDIUM], on Acetylcholinesterase [1], the IC50 amounted to 6290 nM. Further, the inhibition in data set [2] was determined as 89.8%.
With `CN(C)CCCN1c2ccccc2Sc2ccc(Cl)cc21` [CHLORPROMAZINE], the Papp was determined as 13.6 ×10⁻⁶ cm/s in “in vitro [6]” and 8.5 ×10⁻⁶ cm/s in “in vitro [5]”.
Consider `Cl.Cl.Cl.O=C(CCc1ccc2nc(-c3ccccc3)c3c(c2c1)OCCC3)NCCCCCCCNc1c2c(nc3cc(Cl)ccc13)CCCC2`, for which, in “in vitro [6]”, the Papp amounted to 10.2 ×10⁻⁶ cm/s. The values for the half-inhibitory concentration (IC50) against Acetylcholinesterase [1], against Acetylcholinesterase [4] and against Cholinesterase were 29.9 nM, 14.4 nM and 234 nM, respectively. Further, the inhibition in data set [2] was 49.1%; at Beta-secretase 1 [3], 34.4%.
On to `CCOC(=O)c1ccc2nc(-c3ccc(Cl)cc3)c3c(c2c1)OCCC3`, for which the IC50 against Acetylcholinesterase [1], against Acetylcholinesterase [4] and at Cholinesterase was greater than 10000 nM throughout.
`Cl.Cl.Cl.Cl.O=C(NCCCCCCCNc1c2c(nc3cc(Cl)ccc13)CCCC2)c1ccc2nc(-c3ccc(Cl)cc3)c3c(c2c1)OCCC3` registered a Papp in the data set “in vitro [6]” of 17.7 ×10⁻⁶ cm/s. The IC50 against Acetylcholinesterase [1] was determined as 10.3 nM; on Acetylcholinesterase [4] it was 18.3 nM; against Cholinesterase it was 1930 nM. For the same compound, the inhibition amounted to 28.6% in data set [2] and 14.5% on Beta-secretase 1 [3].
Regarding `O=C(NCCCCCCCCNc1c2c(nc3cc(Cl)ccc13)CCCC2)c1ccc2nc(-c3ccc(Cl)cc3)c3c(c2c1)OCCC3`, the IC50 against Acetylcholinesterase [1] turned out to be 10.4 nM; against Acetylcholinesterase [4] it was 7.03 nM; at Cholinesterase it was 331 nM. Further, the values for the inhibition (in data set [2]; at Beta-secretase 1 [3]) were 21.5% and 18.5%, respectively. In addition, the Ki at Acetylcholinesterase [7] was determined as 1.91 nM.
Regarding `Cl.Cl.Cl.O=C(CCc1ccc2nc(-c3ccccc3)c3c(c2c1)OCCC3)NCCCCNc1c2c(nc3cc(Cl)ccc13)CCCC2`, the IC50 at Acetylcholinesterase [1] worked out at 48.1 nM; at Acetylcholinesterase [4] it was 16.6 nM; against Cholinesterase it was 586 nM. This compound gave an inhibition in data set [2] of 45.3%. Besides, the inhibition entry on Beta-secretase 1 [3] was “inactive”. Also, the apparent permeability (Papp) in the data set “in vitro [5]” was 15.1 ×10⁻⁶ cm/s.
The compound `Cl.Nc1c2c(nc3cc(Cl)ccc13)CCCC2` had an inhibition in [2] of 7.1%. Moreover, the inhibition entry at Beta-secretase 1 [3] is “inactive”. The Papp in the data set “in vitro [5]” turned out to be 19.8 ×10⁻⁶ cm/s.
In turn, `Cl.Cl.Cl.Cl.O=C(NCCCCCCNc1c2c(nc3cc(Cl)ccc13)CCCC2)c1ccc2nc(-c3ccc(Cl)cc3)c3c(c2c1)OCCC3` returned a Papp in “in vitro [6]” of 14.9 ×10⁻⁶ cm/s. Moreover, the figures for the concentration for half-maximal inhibition (IC50) against Acetylcholinesterase [1], against Acetylcholinesterase [4] and at Cholinesterase were 20.4 nM, 19.2 nM and 1070 nM, respectively. For the same compound, in [2], the inhibition is 16.4%. The inhibition result at Beta-secretase 1 [3] was “inactive”.
For the compound `O=C(NCCCCCCCCCCNc1c2c(nc3cc(Cl)ccc13)CCCC2)c1ccc2nc(-c3ccc(Cl)cc3)c3c(c2c1)OCCC3`, the IC50 against Acetylcholinesterase [1] was 93.7 nM; against Acetylcholinesterase [4], 50 nM; against Cholinesterase, 1620 nM. For the same compound, the inhibition in data set [2] worked out at 20.5%. The inhibition entry at Beta-secretase 1 [3] was “inactive”.
As to `O=C(NCCCCCCCCCNc1c2c(nc3cc(Cl)ccc13)CCCC2)c1ccc2nc(-c3ccc(Cl)cc3)c3c(c2c1)OCCC3`, the figures for the 50% inhibitory concentration (IC50) at Acetylcholinesterase [1], on Acetylcholinesterase [4] and on Cholinesterase were 24 nM, 24.9 nM and 1390 nM, respectively.
In the case of `c1ccc2c(NCCCCCCCNc3c4c(nc5ccccc35)CCCC4)c3c(nc2c1)CCCC3`, the IC50 on Beta-secretase 1 [8] is 7500 nM.
Compound `Cl.Cl.Cl.O=C(CCc1ccc2nc(-c3ccccc3)c3c(c2c1)OCCC3)NCCCCCCCCNc1c2c(nc3cc(Cl)ccc13)CCCC2` had a Papp in “in vitro [6]” of 10.1 ×10⁻⁶ cm/s. In addition, the IC50 is 1810 nM on Beta-secretase 1 [8], 34.1 nM on Acetylcholinesterase [1], 14 nM against Acetylcholinesterase [4] and 1080 nM against Cholinesterase. The inhibition in data set [2] was 47.3%; on Beta-secretase 1 [3], 77.8%.
In the data set “in vitro [6]”, `Cl.Cl.O=C(CCc1ccc2nc(-c3ccccc3)c3c(c2c1)OCCC3)NCCCCCNc1c2c(nc3cc(Cl)ccc13)CCCC2` gave a Papp of 10.6 ×10⁻⁶ cm/s. The results for the IC50 on Acetylcholinesterase [1], on Acetylcholinesterase [4] and at Cholinesterase were 23.9 nM, 9.64 nM and 290 nM, respectively. Moreover, the inhibition in [2] worked out at 12.2%. In addition, the inhibition result at Beta-secretase 1 [3] is “inactive”.
